Assay results: US9650369B2, “Anti-migration and anti-invasion thiazole analogs for treatment of cellular proliferative disease” (XAVIER UNIVERSITY OF LOUISIANA, priority 2012, dated 2017)

What was measured:
Assay type in all cases: cell-based
[1] = tested on: MDA-MB-231 breast cancer cells; experiment: clonogenic assay (colony formation), MDA-MB-231; settings: Homo sapiens, 336 h; MDA-MB-231, 10 μM analogs, 14 days; read-out: Effect on cell proliferation (colony formation) (% of vehicle control)
Procedure: To determine if these analogs have anti-migration and anti-invasion activities in different cancer cell lines, transwell migration assays were performed using MDA-MB-231 breast cancer cells (FIG. 3) and HeLa cells (FIG. 5) for all synthetic analogs. […] Next, clonogenic assays were performed on the breast cancer cells treated with the compounds to rule out any indirect effect on cell migration due to cytotoxicity (FIG. 4). MDA-MB-231 cells were allowed to grow for 14 days in six-well plates in the presence or absence of the synthetic compounds at 10 μM.
To rule out any indirect effect on cell migration due to cytotoxicity, clonogenic assays were performed on the breast cancer cells treated with the compounds. MDA-MB-231 cells were allowed to grow for 14 days in six-well plates in the presence or absence of the synthetic compounds at 10 μM. […] For example, analog 3g blocked both cell migration (81.4%) and colony formation (42.7%). For these analogs cytotoxity may have partially contributed to their overall anti-migration effect. The cell toxicity data for all analogs are listed in Table 1 along with anti-migration data for comparison.

[2] = antimigration efficacy of additional thiazole compounds (Table 3); settings: cell line not given; read-out: IC50 (anti-migration)
Description: (§1) The additional thiazole compounds were synthesized and tested for antimigration efficacy and cytotoxicity, with results shown in TABLE 3.

[3] = cytotoxicity of additional thiazole compounds (Table 3); settings: cell line not given
Description: as §1

| SMILES | activity at 10 µM [1] | IC50 [2] | Cytotoxicity (Survival at 1 μM) [3] |
| --- | --- | --- | --- |
| Cn1c(-c2ccccc2)cs/c1=N/C(=O)c1ccco1 [Compound 5b, N-(3-Methyl-4-phenylthiazol-2(3H)-yliene)furan-2-carboxamide] | 107% | – | – |
| Cc1ccc(-c2csc(N(C)C(=O)c3cccs3)n2)c(C)c1 [Compound 4b, N-(4-(2,4-dimethylphenyl)thiazol-2-yl)-N-methylthiophene-2-carboxamide] | 97.7% | – | – |
| COc1cc(C(=O)/N=c2/scc(-c3ccccc3)n2C)cc(OC)c1OC [Compound 5e, 3,4,5-Trimethoxy-N-(3-methyl-4-phenylthiazol-2(3H)-yliene)benzamide] | 75.4% | – | – |
| Cn1c(-c2ccccc2)cs/c1=N/C(=O)c1ccc(Br)cc1 [Compound 5d, 4-Bromo-N-(3-methyl-4-phenylthiazol-2(3H)-yliene)benzamide] | 63.8% | – | – |
| CCN(C(=O)c1ccco1)c1nc(-c2ccccc2)cs1 [Compound 4d, N-Ethyl-N-(4-phenylthiazol-2-yl)furan-2-carboxamide] | 96.5% | – | – |
| CN(C(=O)c1ccc(Br)cc1)c1nc(-c2ccccc2)cs1 [Compound 4a, 4-Bromo-N-methyl-N-(4-phenylthiazol-2-yl)benzamide] | 108% | – | – |
| Nc1nc(-c2ccccc2)cs1 [Compound 2a, 2-Amino-4-phenylthiazole] | 104% | – | – |
| O=C(Nc1nc(-c2ccccc2)cs1)C1CCCC1 [Compound 3k, N-(4-Phenylthiazol-2-yl)cyclopentanecarboxamide] | 99.8% | – | – |
| Cn1c(-c2ccccc2)cs/c1=N/C(=O)c1cccnc1 [Compound 5h, N-(3-Methyl-4-phenylthiazol-2(3H)-yliene)nicotinamide] | 112% | – | – |
| Cc1ccc(-c2cs/c(=N/C(=O)c3cccs3)n2C)c(C)c1 [Compound 5f, N-(4-(2,4-dimethylphenyl)-3-methylthiazol-2(3H)-yliene)thiophene-2-carboxamide] | 102% | – | – |
| Cc1ccc(-c2csc(N(C)S(=O)(=O)c3ccccc3)n2)c(C)c1 [Compound 12, N-(4-(2,4-Dimethylphenyl)thiazol-2-yl)-N-methylbenzenesulfonamide] | – | > 25000 nM | 116.7% |
| O=C(Nc1nc(-c2cc(C(F)(F)F)cc(C(F)(F)F)c2)cs1)c1ccccc1 [Compound 14f, N-(4-(3,5-Bis(trifluoromethyl)phenyl)thiazol-2-yl)benzamide] | – | 336 nM | 85.8% |
| Cc1csc(NC(=O)c2ccccc2)n1 [Compound 14a, N-(4-Methylthiazol-2-yl)benzamide] | – | 12000 nM | 103.1% |
| C#CCn1c(-c2ccccc2)csc1=NC(=O)c1ccccc1 [Compound 7d, N-(4-Phenyl-3-(prop-2-yn-1-yl)thiazol-2(3H)-ylidene)benzamide] | – | 64.7 nM | 63.0% |
| Cn1c(-c2ccc(Br)cc2)csc1=NC(=O)c1ccccc1 [Compound 15d, N-(4-(4-Bromophenyl)-3-methylthiazol-2(3H)-ylidene)benzamide] | – | 125 nM | 59.3% |
| COc1cccc(C(=O)N(C)c2nc(-c3cc(OC)c(OC)c(OC)c3)cs2)c1 [Compound 16m, 3-Methoxy-N-methyl-N-(4-(3,4,5-trimethoxyphenyl)thiazol-2-yl)benzamide] | – | 646 nM | 88.9% |

| SMILES | activity at 10 µM [1] | IC50 [2] | Cytotoxicity (Survival at 1 μM) [3] |
| --- | --- | --- | --- |
| C#CCn1c(-c2ccc(C)cc2C)csc1=NC(=O)c1ccccc1 [Compound 5r, N-(4-(2,4-Dimethylphenyl)-3-(prop-2-yn-1-yl)thiazol-2(3H)-ylidene)benzamide] | – | 11000 nM | 70.2% |
| COc1cc(-c2csc(N(C)C(=O)c3ccccc3)n2)cc(OC)c1OC [Compound 16d, N-Methyl-N-(4-(3,4,5-trimethoxyphenyl)thiazol-2-yl)benzamide] | – | 10000 nM | 96.4% |
| Cn1c(-c2cccc(Cl)c2)csc1=NC(=O)c1ccccc1 [Compound 15e, N-(4-(3-Chlorophenyl)-3-methylthiazol-2(3H)-ylidene)benzamide] | – | 367 nM | 35.2% |
| O=C(Nc1nc(-c2ccc(Br)cc2)cs1)c1ccccc1 [Compound 14d, N-(4-(4-Bromophenyl)thiazol-2-yl)benzamide] | – | 9500 nM | 82.2% |
| Cc1sc(NC(=O)c2ccccc2)nc1-c1ccc(F)cc1 [Compound 14i, N-(4-(4-Fluorophenyl)-5-methylthiazol-2-yl)benzamide] | – | 9100 nM | 53.7% |
| COc1ccc(C(=O)N=c2scc(-c3cc(OC)c(OC)c(OC)c3)n2C)cc1 [Compound 15k, 4-Methoxy-N-(3-methyl-4-(3,4,5-trimethoxyphenyl)thiazol-2(3H)-ylidene)benzamide] | – | 8000 nM | 105.6% |
| COc1cc(C(=O)Nc2nc(-c3cc(OC)c(OC)c(OC)c3)cs2)cc(OC)c1OC [Compound 14o, 3,4,5-Trimethoxy-N-(4-(3,4,5-trimethoxyphenyl)thiazol-2-yl)benzamide] | – | 1030 nM | 77.6% |
| COc1ccc(C(=O)Nc2nc(-c3cc(OC)c(OC)c(OC)c3)cs2)cc1 [Compound 14k, 4-Methoxy-N-(4-(3,4,5-trimethoxyphenyl)thiazol-2-yl)benzamide] | – | > 25000 nM | 93.8% |
| Cc1ccc(-c2cnc(NC(=O)c3ccccc3)s2)cc1 [Compound 14j, N-(5-(p-Tolyl)thiazol-2-yl)benzamide] | – | 308 nM | 55.6% |
| CCCCCCn1c(-c2ccc(C)cc2C)csc1=NC(=O)c1ccccc1 [Compound 5o, N-(4-(2,4-Dimethylphenyl)-3-hexylthiazol-2(3H)-ylidene)benzamide] | – | 87 nM | 90.0% |
| COc1cc(-c2csc(NC(=O)c3cccc(OC)c3OC)n2)cc(OC)c1OC [Compound 14p, 2,3-Dimethoxy-N-(4-(3,4,5-trimethoxyphenyl)thiazol-2-yl)benzamide] | – | 15000 nM | 90.1% |
| CCCN(C(=O)c1ccccc1)c1nc(-c2ccccc2)cs1 [Compound 8b, N-(4-Phenylthiazol-2-yl)-N-propylbenzamide] | – | 32.4 nM | 116.0% |
| Cn1c(-c2cc(C(F)(F)F)cc(C(F)(F)F)c2)csc1=NC(=O)c1ccccc1 [Compound 15f, N-(4-(3,5-Bis(trifluoromethyl)phenyl)-3-methylthiazol-2(3H)-ylidene)benzamide] | – | 96 nM | 79.8% |
| COc1cc(-c2csc(N(C)C(=O)c3cccc(OC)c3OC)n2)cc(OC)c1OC [Compound 16k, 2,3-Dimethoxy-N-methyl-N-(4-(3,4,5-trimethoxyphenyl)thiazol-2-yl)benzamide] | – | 108 nM | 117.6% |
| O=C(Nc1nc(-c2cccc(Br)c2)cs1)c1ccccc1 [Compound 14c, N-(4-(3-Bromophenyl)thiazol-2-yl)benzamide] | – | 10000 nM | 78.0% |
| COc1ccccc1C(=O)Nc1nc(-c2cc(OC)c(OC)c(OC)c2)cs1 [Compound 14q, 2-Methoxy-N-(4-(3,4,5-trimethoxyphenyl)thiazol-2-yl)benzamide] | – | 8500 nM | 103.7% |
